What all share (format): cell-based
Assay [1] addresses human adenosine A2B receptors (Homo sapiens (Human), UniProt P29275). Kind of assay: FLIPR calcium flux functional assay, A2B receptor. The settings on record: mammalian cell line expressing human A2B. The method, then:
(§1) The use of a Fluorometric Imaging Plate Reader (FLIPR) to measure calcium flux in Adenosine-receptor expressing cells is a well-established technique. In this assay calcium flux is triggered by receptor activation and measured through the fluorescence of an incorporated calcium-sensitive dye. The potencies shown were determined using expressed human adenosine A2B receptors in mammalian cell lines. Selectivity values were obtained by using mammalian cell lines expressing the human adenosine A1, A2A and A3 receptors. Compound potency was determined from dose response curves and is reported as an IC50 value.
(§2) All examples were tested for activity in the functional assay described above.
(In general: Calcium flux is commonly read through the fluorescence of an indicator in the cells.)

In assay [2] the target is human adenosine A2A receptor (Homo sapiens (Human), UniProt P29274). Kind of assay: FLIPR calcium flux functional assay, A2A receptor. Conditions: for Kb: mammalian cell line expressing human A2A, calcium flux; for A2a/A2b: selectivity ratio of Kb values. Here is the method: as §1, §2
The target of assay [3] is human adenosine A1 receptor (Homo sapiens (Human), UniProt P30542). Kind of assay: FLIPR calcium flux functional assay, A1 receptor. The settings on record: for Kb: mammalian cell line expressing human A1, calcium flux; for A1/A2b: selectivity ratio of Kb values. The method, then: as §1, §2
In assay [4] the target is human adenosine A3 receptor (Homo sapiens (Human), UniProt P0DMS8). Kind of assay: FLIPR calcium flux functional assay, A3 receptor. Conditions: for Kb: mammalian cell line expressing human A3, calcium flux; for A3/A2b: selectivity ratio of Kb values. Here is the method:
as §1, §2

Sequence of human adenosine A1 receptor (P30542 whole entry): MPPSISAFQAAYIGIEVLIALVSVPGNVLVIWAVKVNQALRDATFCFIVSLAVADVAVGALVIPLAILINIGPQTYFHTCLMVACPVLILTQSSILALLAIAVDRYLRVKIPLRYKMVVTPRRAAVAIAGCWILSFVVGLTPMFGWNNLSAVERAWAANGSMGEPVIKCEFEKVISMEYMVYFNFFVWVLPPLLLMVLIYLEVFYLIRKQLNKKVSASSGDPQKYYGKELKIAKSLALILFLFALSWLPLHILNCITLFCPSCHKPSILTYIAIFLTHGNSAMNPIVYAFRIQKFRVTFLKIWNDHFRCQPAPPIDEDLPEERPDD
Sequence of human adenosine A3 receptor (P0DMS8 whole entry): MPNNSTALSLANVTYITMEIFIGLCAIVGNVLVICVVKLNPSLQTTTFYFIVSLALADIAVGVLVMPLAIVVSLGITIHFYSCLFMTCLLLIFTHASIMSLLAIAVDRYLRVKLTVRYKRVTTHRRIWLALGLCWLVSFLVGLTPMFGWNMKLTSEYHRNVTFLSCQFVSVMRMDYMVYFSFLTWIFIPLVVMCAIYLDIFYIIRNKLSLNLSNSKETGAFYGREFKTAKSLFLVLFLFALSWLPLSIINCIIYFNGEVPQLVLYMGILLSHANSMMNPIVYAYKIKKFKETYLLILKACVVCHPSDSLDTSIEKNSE
Sequence of human adenosine A2B receptors (P29275 whole entry): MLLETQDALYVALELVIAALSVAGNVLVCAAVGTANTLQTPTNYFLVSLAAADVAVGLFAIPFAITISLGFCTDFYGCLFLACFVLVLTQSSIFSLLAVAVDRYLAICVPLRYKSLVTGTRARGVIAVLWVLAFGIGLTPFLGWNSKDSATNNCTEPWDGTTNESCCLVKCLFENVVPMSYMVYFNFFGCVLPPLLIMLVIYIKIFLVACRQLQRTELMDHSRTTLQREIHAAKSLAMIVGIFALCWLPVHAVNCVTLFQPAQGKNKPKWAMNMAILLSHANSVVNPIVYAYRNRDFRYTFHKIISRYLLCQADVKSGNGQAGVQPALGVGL
Sequence of human adenosine A2A receptor (P29274 whole entry): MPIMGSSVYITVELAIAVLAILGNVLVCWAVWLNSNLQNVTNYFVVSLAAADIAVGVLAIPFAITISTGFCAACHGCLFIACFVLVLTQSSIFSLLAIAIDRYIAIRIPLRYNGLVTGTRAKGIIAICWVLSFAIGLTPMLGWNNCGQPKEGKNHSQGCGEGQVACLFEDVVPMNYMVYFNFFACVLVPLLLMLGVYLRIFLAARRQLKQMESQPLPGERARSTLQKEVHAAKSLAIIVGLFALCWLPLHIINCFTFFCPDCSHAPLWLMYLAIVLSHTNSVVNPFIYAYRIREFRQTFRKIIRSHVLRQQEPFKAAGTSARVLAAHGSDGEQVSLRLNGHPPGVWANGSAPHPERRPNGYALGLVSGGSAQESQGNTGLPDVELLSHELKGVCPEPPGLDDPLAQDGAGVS

`CNc1cc2nc(NCc3cccnc3)nc(C(=O)c3cccs3)c2s1` [Example 6, {6-Methylamino-2-[(pyridin-3-ylmethyl)-amino]-thieno[3,2-d]pyrimidin-4-yl}-thiophen-2-yl-methanone]: the Kb in assay [1] turned out to be 1.4 nM; in assay [2], 277 nM; in assay [3], 57.6 nM; in assay [4] it was 22.9 nM. Further, the A2a/A2b in assay [2] is 198. The A1/A2b in assay [3] is on record as 41. Moreover, in assay [4], the A3/A2b stood at 16.

With `CN(C)c1cc2nc(NCc3cccnc3)nc(C(=O)c3cccs3)c2s1` [Example 7, {6-dimethylamino-2-[(pyridine-3-ylmethyl)-amino]-thieno[3,2-d]pyrimidin-4-yl}-thiophen-2-yl-methanone], the Kb in assay [1] came to 6.5 nM. Further, in assay [2], the Kb amounted to 318 nM and the A2a/A2b is 49. In addition, in assay [3], the Kb turned out to be 19.4 nM and the A1/A2b is 3. Besides, in assay [4], the Kb is 130 nM and the A3/A2b is listed as 20.

Consider `CCNc1cc2nc(NCc3cccnc3)nc(C(=O)c3cccs3)c2s1` [Example 8, {6-Ethylamino-2-[(pyridin-3-ylmethyl)-amino]-thieno[3,2-d]pyrimidin-4-yl}-thiophen-2-yl-methanone], for which the Kb in assay [1] is 6.7 nM. Also, in assay [2], the Kb came out at 726 nM and the A2a/A2b is 109. In addition, in assay [3], the Kb came to 118 nM and the A1/A2b came to 18. Besides, in assay [4], the Kb was determined as 37.3 nM and the A3/A2b was 6.

Consider `Nc1cc2nc(NCc3cccnc3)nc(C(=O)c3cccs3)c2s1` [Example 9, {6-Amino-2-[(pyridin-3-ylmethyl)-amino]-thieno[3,2-d]pyrimidin-4-yl}-thiophen-2-yl-methanone], for which the Kb in assay [1] was found to be 7.1 nM; in assay [2], 1400 nM; in assay [3], 1100 nM; in assay [4], 233 nM. Besides, the A2a/A2b in assay [2] is given as above 196. Moreover, in assay [3], the A1/A2b is recorded as 155. In addition, the A3/A2b in assay [4] was found to be 33.

Regarding `C=Cc1cc2nc(NCc3cccnc3)nc(C(=O)c3cccs3)c2s1` [Example 10, {2-[(Pyridin-3-ylmethyl)-amino]-6-vinyl-thieno[3,2-d]pyrimidin-4-yl}-thiophen-2-yl-methanone], the Kb in assay [1] worked out at 52.3 nM. For the same molecule, in assay [2], the Kb came out at 3750 nM and the A2a/A2b is above 71. Moreover, in assay [3], the Kb is 161 nM and the A1/A2b was found to be 3. Besides, in assay [4], the Kb came out at 747 nM and the A3/A2b is given as 14.

As for `CCc1cc2nc(NCc3cccnc3)nc(C(=O)c3cccs3)c2s1` [Example 11, {6-Ethyl-2-[(pyridin-3-ylmethyl)-amino]-thieno[3,2-d]pyrimidin-4-yl}-thiophen-2-yl-methanone], the Kb in assay [1] amounted to 36.7 nM; in assay [2], 3750 nM; in assay [3] it was 216 nM; in assay [4], 361 nM. Besides, in assay [2], the A2a/A2b is reported as above 102. Moreover, in assay [3], the A1/A2b was found to be 6. Besides, the A3/A2b in assay [4] came to 10.

For `O=C(c1cccs1)c1nc(NCc2cccnc2)nc2cc(NCc3cccnc3)sc12` [Example 12, {6-(3-picolylamino)-2-[(pyridin-3-ylmethyl)-amino]-thieno[3,2-d]pyrimidin-4-yl}-thiophen-2-yl-methanone], in assay [1], the Kb came to 68.9 nM. Further, in assay [2], the Kb amounted to 828 nM and the A2a/A2b is 12. In assay [3], the Kb was found to be 256 nM and the A1/A2b worked out at 4. Besides, in assay [4], the Kb was 308 nM and the A3/A2b amounted to 4.

Values taken from US9120807B2, “Thienopyrimidine compounds” (Vernalis (R&D) Ltd., priority 2007, dated 2015).
